Assays:
[1] = target: T1, c-Met (cytoplasmic domain) (Homo sapiens, UniProt P08581); assay: c-Met Kinase Assay (same methods as for ALK, with modifications); assay type: biochemical; settings: c-Met kinase inhibition, 1 μM ATP (Km level); read-out: cMet Activity
T1 construct: 10 ng/mL c-Met (cytoplasmic domain, Invitrogen Corporation #PV3143); purchased Invitrogen Corporation PV3143
Method in brief: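 Wells were coated with 10 μg/mL phospholipase C-γ substrate in TBS, and reactions were started with 10 ng/mL c-Met cytoplasmic domain and run at 37° C for 15 minutes. Phosphorylated product was detected with Eu-N1-labeled PT66 antibody. IC50 values came from sigmoidal variable-slope fits of percent inhibition versus log compound concentration.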

[2] = target: T2, baculovirus-expressed ALK (Homo sapiens, UniProt Q9UM73); assay: ALK Kinase Assay (ELISA-type, time-resolved fluorescence); assay type: biochemical; settings: ALK kinase inhibition, 1 μM ATP (Km level); read-out: ALK Activity
T2 construct: host or cells: baculovirus expression system
T2 sequence (Q9UM73 19-1620): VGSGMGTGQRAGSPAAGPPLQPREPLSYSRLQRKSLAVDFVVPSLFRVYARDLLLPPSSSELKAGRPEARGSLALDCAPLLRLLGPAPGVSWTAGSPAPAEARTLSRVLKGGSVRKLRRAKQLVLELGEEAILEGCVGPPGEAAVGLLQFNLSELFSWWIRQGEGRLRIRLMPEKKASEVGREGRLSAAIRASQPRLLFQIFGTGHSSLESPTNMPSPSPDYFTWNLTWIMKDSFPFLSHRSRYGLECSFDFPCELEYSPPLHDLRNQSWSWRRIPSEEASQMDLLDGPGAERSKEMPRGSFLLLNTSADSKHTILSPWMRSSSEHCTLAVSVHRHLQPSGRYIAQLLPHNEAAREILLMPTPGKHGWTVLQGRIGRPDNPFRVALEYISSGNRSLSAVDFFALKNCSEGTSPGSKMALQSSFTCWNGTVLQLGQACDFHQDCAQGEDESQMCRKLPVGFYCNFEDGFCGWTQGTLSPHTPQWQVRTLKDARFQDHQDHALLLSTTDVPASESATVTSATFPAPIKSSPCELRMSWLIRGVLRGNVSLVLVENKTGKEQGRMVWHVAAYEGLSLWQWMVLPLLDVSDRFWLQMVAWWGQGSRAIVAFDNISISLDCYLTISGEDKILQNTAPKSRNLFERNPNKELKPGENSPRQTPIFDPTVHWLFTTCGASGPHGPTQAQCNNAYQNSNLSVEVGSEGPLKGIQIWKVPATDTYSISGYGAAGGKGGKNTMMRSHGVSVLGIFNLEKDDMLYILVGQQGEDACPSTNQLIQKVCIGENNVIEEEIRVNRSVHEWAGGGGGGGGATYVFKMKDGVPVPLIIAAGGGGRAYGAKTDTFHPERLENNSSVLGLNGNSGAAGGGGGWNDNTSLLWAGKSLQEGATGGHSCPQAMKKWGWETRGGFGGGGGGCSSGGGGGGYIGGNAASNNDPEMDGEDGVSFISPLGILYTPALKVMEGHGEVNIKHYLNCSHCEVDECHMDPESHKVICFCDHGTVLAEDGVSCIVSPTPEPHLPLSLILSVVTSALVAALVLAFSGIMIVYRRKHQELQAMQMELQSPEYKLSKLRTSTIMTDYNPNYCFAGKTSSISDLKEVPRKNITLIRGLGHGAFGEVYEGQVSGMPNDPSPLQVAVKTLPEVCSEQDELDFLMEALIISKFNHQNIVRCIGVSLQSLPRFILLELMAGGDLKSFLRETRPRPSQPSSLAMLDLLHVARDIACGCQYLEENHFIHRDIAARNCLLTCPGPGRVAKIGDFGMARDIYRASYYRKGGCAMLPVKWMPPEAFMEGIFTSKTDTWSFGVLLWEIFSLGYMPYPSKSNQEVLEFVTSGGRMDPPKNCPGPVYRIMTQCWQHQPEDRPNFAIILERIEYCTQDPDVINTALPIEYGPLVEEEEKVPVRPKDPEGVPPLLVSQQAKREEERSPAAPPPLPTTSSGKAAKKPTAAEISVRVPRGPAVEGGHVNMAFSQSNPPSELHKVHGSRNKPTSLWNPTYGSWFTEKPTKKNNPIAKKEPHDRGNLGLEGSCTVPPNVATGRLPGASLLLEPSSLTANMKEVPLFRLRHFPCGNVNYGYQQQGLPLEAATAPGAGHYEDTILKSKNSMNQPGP
Method in brief: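 Substrate coating: phospholipase C-γ, 10 μg/mL in TBS. Kinase step: 30 ng/ml ALK, 15 min, 37° C. Detection and analysis: Eu-N1 PT66 antibody, with IC50 fitted as a sigmoidal variable-slope dose-response curve.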

T1 sequence (P08581 956-1390 limits assumed): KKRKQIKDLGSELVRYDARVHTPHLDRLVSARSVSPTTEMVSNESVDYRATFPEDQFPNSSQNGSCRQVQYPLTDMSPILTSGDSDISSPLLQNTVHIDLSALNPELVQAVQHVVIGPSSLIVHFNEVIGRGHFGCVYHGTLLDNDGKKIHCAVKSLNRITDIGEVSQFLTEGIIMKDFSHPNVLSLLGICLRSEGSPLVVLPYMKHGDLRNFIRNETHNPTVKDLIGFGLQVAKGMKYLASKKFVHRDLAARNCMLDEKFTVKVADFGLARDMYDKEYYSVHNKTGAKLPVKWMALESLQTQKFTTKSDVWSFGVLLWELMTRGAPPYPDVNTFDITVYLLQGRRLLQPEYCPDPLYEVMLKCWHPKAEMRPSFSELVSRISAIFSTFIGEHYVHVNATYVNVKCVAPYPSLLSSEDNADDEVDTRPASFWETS

| Compound | IC50 [1] | IC50 [2] |
| --- | --- | --- |
| CCN1C(=O)CCC(C)(C)c2cc(Nc3ncc(Cl)c(Nc4ccccc4C(=O)NC)n3)ccc21 [Example 387, 2-[5-Chloro-2-(1-ethyl-5,5-dimethyl-2-oxo-2,3,4,5-tetrahydro-1H-benzo[b]azepin-7-ylamino)-pyrimidin-4-ylamino]-N-methyl-benzamide] | < 100 nM | < 100 nM |
| CCN1C(=O)CCC(C)(C)c2cc(Nc3ncc(Cl)c(N[C@@H]4CCCC[C@H]4NS(C)(=O)=O)n3)ccc21 [Example 388, N-{(1R,2R)-2-[5-Chloro-2-(1-ethyl-5,5-dimethyl-2-oxo-2,3,4,5-tetrahydro-1H-benzo[b]azepin-7-ylamino)-pyrimidin-4-ylamino]-cyclohexyl}-methanesulfonamide] | 1000 to 10000 nM | < 100 nM |
| CCN1C(=O)CCC(C)(C)c2cc(Nc3ncc(Cl)c(Nc4c(Cl)cccc4C(=O)NC)n3)ccc21 [Example 389, 3-Chloro-2-[5-chloro-2-(1-ethyl-5,5-dimethyl-2-oxo-2,3,4,5-tetrahydro-1H-benzo[b]azepin-7-ylamino)-pyrimidin-4-ylamino]-N-methyl-benzamide] | 100 to 1000 nM | 100 to 1000 nM |
| CCN1C(=O)CCC(C)(C)c2cc(Nc3ncc(Cl)c(Nc4ccc(N5CCOCC5)cc4OC)n3)ccc21 [Example 391, 7-[5-Chloro-4-(2-methoxy-4-morpholin-4-yl-phenylamino)-pyrimidin-2-ylamino]-1-ethyl-5,5-dimethyl-1,3,4,5-tetrahydro-benzo[b]azepin-2-one] | > 10000 nM | < 100 nM |
| CC1(C)CCCNc2ccc(Nc3ncc(Cl)c(N[C@@H]4CCCC[C@H]4NS(C)(=O)=O)n3)cc21 [Example 392, N-{(1R,2R)-2-[5-Chloro-2-(5,5-dimethyl-2,3,4,5-tetrahydro-1H-benzo[b]azepin-7-ylamino)-pyrimidin-4-ylamino]-cyclohexyl}-methanesulfonamide] | 1000 to 10000 nM | < 100 nM |
| CC1(C)CCC(=O)Nc2ccc(Nc3ncc(Cl)c(NC4C5C=CC(C5)C4C(N)=O)n3)cc21 (stereo not drawn) [Example 394, (2-exo,3-exo)-3-[5-Chloro-2-(5,5-dimethyl-2-oxo-2,3,4,5-tetrahydro-1H-benzo[b]azepin-7-ylamino)-pyrimidin-4-ylamino]-bicyclo[2.2.1]hept-5-ene-2-carboxylic acid amide] | 100 to 1000 nM | < 100 nM |
| CC(=O)N[C@@H]1CCCC[C@H]1Nc1nc(Nc2ccc3c(c2)C(C)(C)CCC(=O)N3)ncc1Cl [Example 395, N-{(1R,2R)-2-[5-Chloro-2-(5,5-dimethyl-2-oxo-2,3,4,5-tetrahydro-1H-benzo[b]azepin-7-ylamino)-pyrimidin-4-ylamino]-cyclohexyl}-acetamide] | 100 to 1000 nM | < 100 nM |
| Cn1ccnc1-c1ccccc1Nc1nc(Nc2ccc3c(c2)C(C)(C)CCC(=O)N3)ncc1Cl [Example 397, 7-{5-Chloro-4-[2-(1-methyl-1H-imidazol-2-yl)-phenylamino]-pyrimidin-2-ylamino}-5,5-dimethyl-1,3,4,5-tetrahydro-benzo[b]azepin-2-one] | 100 to 1000 nM | < 100 nM |
| CC1(C)CCC(=O)Nc2ccc(Nc3ncc(Cl)c(Nc4ccccc4-n4cccn4)n3)cc21 [Example 398, 7-[5-Chloro-4-(2-pyrazol-1-yl-phenylamino)-pyrimidin-2-ylamino]-5,5-dimethyl-1,3,4,5-tetrahydro-benzo[b]azepin-2-one] | > 10000 nM | < 100 nM |
| CNC(=O)c1cccc(F)c1Nc1nc(Nc2ccc3c(c2)C(=O)NCCC3)ncc1Cl [Example 400, 2-[5-Chloro-2-(1-oxo-2,3,4,5-tetrahydro-1H-benzo[c]azepin-8-ylamino)-pyrimidin-4-ylamino]-3-fluoro-N-methyl-benzamide] | 100 to 1000 nM | 100 to 1000 nM |
| CNC(=O)c1cccc(C)c1Nc1nc(Nc2ccc3c(c2)C(=O)NCCC3)ncc1Cl [Example 401, 2-[5-Chloro-2-(1-oxo-2,3,4,5-tetrahydro-1H-benzo[c]azepin-8-ylamino)-pyrimidin-4-ylamino]-3,N-dimethyl-benzamide] | 100 to 1000 nM | > 10000 nM |
| CNC(=O)c1ccccc1Nc1nc(Nc2ccc3c(c2)NCCNC3=O)ncc1Cl [Example 411, 2-[5-Chloro-2-(5-oxo-2,3,4,5-tetrahydro-1H-benzo[e][1,4]diazepin-8-ylamino)-pyrimidin-4-ylamino]-N-methylbenzamide] | < 100 nM | < 100 nM |
| CNC(=O)c1ccccc1Nc1nc(Nc2ccc3c(c2)NCCN(C)C3=O)ncc1Cl [Example 412, 2-[5-Chloro-2-(4-methyl-5-oxo-2,3,4,5-tetrahydro-1H-benzo[e][1,4]diazepin-8-ylamino)-pyrimidin-4-ylamino]-N-methylbenzamide] | < 100 nM | < 100 nM |
| CNC(=O)c1ccccc1Nc1nc(Nc2ccc3c(c2)N(C)CCN(C)C3=O)ncc1Cl [Example 413, 2-[5-Chloro-2-(1,4-dimethyl-5-oxo-2,3,4,5-tetrahydro-1H-benzo[e][1,4]diazepin-8-ylamino)-pyrimidin-4-ylamino]-N-methylbenzamide] | < 100 nM | < 100 nM |
| CNC(=O)c1ccccc1Nc1nc(Nc2ccc3c(c2)N(C)CCNC3=O)ncc1Cl [Example 414, 2-[5-Chloro-2-(1-methyl-5-oxo-2,3,4,5-tetrahydro-1H-benzo[e][1,4]diazepin-8-ylamino)-pyrimidin-4-ylamino]-N-methylbenzamide] | < 100 nM | < 100 nM |
| CCN(CC)CCN1CCNC(=O)c2ccc(Nc3ncc(Cl)c(Nc4ccccc4C(=O)NC)n3)cc21 [Example 415, 2-{5-Chloro-2-[1-(2-diethylamino-ethyl)-5-oxo-2,3,4,5-tetrahydro-1H-benzo[e][1,4]diazepin-8-ylamino]-pyrimidin-4-ylamino}-N-methylbenzamide] | 100 to 1000 nM | < 100 nM |
| CNC(=O)c1ccccc1Nc1nc(Nc2ccc3c(c2)N(C)CCNC3)ncc1Cl [Example 417, 2-[5-Chloro-2-(1-methyl-2,3,4,5-tetrahydro-1H-benzo[e][1,4]diazepin-8-ylamino)-pyrimidin-4-ylamino]-N-methylbenzamide] | < 100 nM | < 100 nM |
| CCN1CCN(CC)c2cc(Nc3ncc(Cl)c(Nc4ccccc4C(=O)NC)n3)ccc2C1=O [Example 418, 2-[5-Chloro-2-(1,4-diethyl-5-oxo-2,3,4,5-tetrahydro-1H-benzo[e][1,4]diazepin-8-ylamino)-pyrimidin-4-ylamino]-N-methylbenzamide] | < 100 nM | < 100 nM |
| CCN1CCN(CC)c2cc(Nc3ncc(Cl)c(Nc4ccccc4C(=O)NC)n3)ccc2C1 [Example 419, 2-[5-Chloro-2-(1,4-diethyl-2,3,4,5-tetrahydro-1H-benzo[e][1,4]diazepin-8-ylamino)-pyrimidin-4-ylamino]-N-methylbenzamide] | < 100 nM | < 100 nM |
| CNC(=O)c1ccccc1Nc1nc(Nc2ccc3c(c2)CNCCN3C)ncc1Cl [Example 420, 2-[5-Chloro-2-(1-methyl-2,3,4,5-tetrahydro-1H-benzo[e][1,4]diazepin-7-ylamino)-pyrimidin-4-ylamino]-N-methylbenzamide] | < 100 nM | < 100 nM |
| CN1CCNCc2cc(Nc3ncc(Cl)c(Nc4ccccc4NS(C)(=O)=O)n3)ccc21 [Example 421, N-{2-[5-Chloro-2-(1-methyl-2,3,4,5-tetrahydro-1H-benzo[e][1,4]diazepin-7-ylamino)-pyrimidin-4-ylamino]-phenyl}-methanesulfonamide] | 100 to 1000 nM | < 100 nM |

— patent US8148391B2 (Cephalon, Inc., priority 2006, dated 2012)
